The values that follow come from patent publication US11503826B2, “Low volatility auxin herbicide formulations” (priority 2009, dated 2022).

The subject of one data set is eyes of rabbit. On the procedure: Eye irritation measurement can be done according to the methods provided in U.S. Environmental Protection Agency Office of Prevention, Pesticides and Toxic Substances, Health Effects Test Guidelines (for example, OPPTS 870.2400 Acute Eye Irritation, August 1998).
The eye irritation potential of an aqueous formulation of the present invention was evaluated. […] Eye irritation testing was done according to the methods provided in U.S. Environmental Protection Agency Office of Prevention, Pesticides and Toxic Substances, Health Effects Test Guidelines: OPPTS 870.2400 Acute Eye Irritation. The eyes of 3 rabbit animals were treated with the formulation and were scored for effects on the cornea, iris, and conjunctivae (redness, swelling and discharge).

Data set [1] is described as follows: Aqueous solubility of dicamba acid and dicamba salts. The note with it: for aqueous solubility wt % a.i. @20° C.: dicamba salts; for Comments (crystal formation): dicamba salt solutions; for solubility 20° C. a.e. / solubility 20° C. a.i.: equilibrated 5 to 7 days at 20° C.; for solubility 20° C. a.e.: 0.45 micron filter, HPLC. The text has this:
The solution was then passed through a 0.45 micron filter and assayed by HPLC for soluble dicamba.

Data set [2] is classed as physicochemical. The note with it: 38.5 wt % a.e. solutions (Table 4i). On the procedure: In a further set of experiments, measurements of dicamba concentration in the gas phase (air) above 38.5 wt % a.e. solutions of various dicamba salts was measured. 5 mL of each sample of dicamba was placed into a 50 mL plastic centrifuge tube with four holes approximately ⅛ in diameter drilled into the tube at the 10 mL line. A 22 mm×30 mm PUF (SKC ct. #226-124) was placed into a glass tube of app. 20 mm diameter with parafilm wrapped around the outside to obtain a snug fit into the top of the centrifuge tube. A hose was connected to the other end of the glass tube leading to a vacuum line. The air flow was regulated to app. 2 L/min using a flow controller (about 0.4 L air/min-mL sample). Air was pulled through the tube at […] for approximately 1 day. Note that the air conditions of flow rate, temperature, pressure and composition (e.g., relative humidity) are not narrowly critical as long as the various samples are analyzed under similar conditions. For instance, air at from about 5° C. to about 40° C., from about 0.5 to about 1.5 bar pressure, from about 0% to about 95% relative humidity, and at a flow rate of from about 0.1 to 10 L/min-mL sample could be suitably used for volatility analysis. The PUF was removed from the glass tube, extracted with 20 mL methanol and the resulting solution analyzed for dicamba concentration by LC-MS. The results are shown in Table 4i below where “wt % a.e.” refers to the dicamba concentration, “μg/mL” refers to the dicamba concentration in the distillate, “μg dicamba” refers to the total dicamba extracted from the PUF by 20 mL methanol, and “ng/L air” and “moles/L air” refer to the dicamba concentration in the gas phase above the solution.

For data set [3] the following is noted: 20° C.; 'is believed to have'; cited from earlier work.
The conditions of data set [4]: 5% a.e. DMA Dicamba solution.
Data set [5] can be described thus: Tank mix compatibility of dicamba salts with potassium glyphosate. The note with it: for g to crystals: grams dicamba a.e. (35.8% a.e. salt solution) added to […] Roundup POWERMAX solution to induce crystallization or precipitation; for Comment: dicamba salt solution added to […] Roundup POWERMAX solution. The class given is physicochemical. The text has this:
The weight of the dicamba solution that caused precipitation was noted. The results are reported in Table 12a below where “salt” refers to the dicamba salt and “g to crystals” refers to the total amount of grams of dicamba a.e. that were required to induce crystallization or precipitation of crystals.

The nature of data set [6]: Distillation volatility: dicamba in distillate by HPLC/MS. The class given is physicochemical. The note with it: for ppm Dicamba in distillate: Table 4h summary, 5% a.e. salt solution. As to the method:
The pH was measured on a standard Orion Model 320 pH meter of each neat solution.
Simple distillation using a short path still was used to collect the water distillate containing the dicamba in the vapor phase of the salt solutions. A 50 mL distillation flask was used. The distillation receiver was a “cow” type with four 2 mL graduated sections. The solutions were heated at the 30% setting of the GlassCol heating unit and the boiling point of each distillation was noted. The first 2 ml of distillate was collected, and the receiver rotated to avoid collection of any further distillate in that section as the distillation flask cooled. The 2 mL sample was quantitatively transferred by pipette to HPLC vials for later analysis. Between each distillation the distillation apparatus was washed with 10 volumes of tap water, 10 volumes of distilled water, rinsed with acetone, and dried in a 60° C. oven. Each distillation was run in triplicate.
The distillate was collected and analyzed for dicamba concentration using HPLC/Mass Spectroscopy (MS). The HPLC column was an Agilent Zorbax Eclipse XDB-C8, 4.6×150 mm, 5u, PN 993967-90. Mobile phase A was 0.1% formic acid in D.I. water. Mobile phase B was 0.1% formic acid in acetonitrile. A flow rate of 1.2 mL/min was used and an injection volume of 5, 10, 15 or 25 ul was used depending on the dicamba level in the sample. The following gradient was used: […]
The MS parameters were as follows: Type SIR; ES-ion mode; 0.05 second inter channel delay; 0.05 second interscan time; 0.5 span (Da); 10 minutes elapsed time; and 6-6000 ppb calibration range. […] Channel 2 mass was 177 (Da); Dwell was 0.25(s); Cone(V)=tune and; 0.05(s) delay.

Where [7] appears, read: Table 10a, dicamba salt, acid equivalent.

Each structure is given as a SMILES string. Counter-ions that a name gives are not always drawn. Like-named read-outs stand apart in the source and are kept apart here.

In the case of `COc1c(Cl)ccc(Cl)c1C(=O)O.NCCO` [Dicamba MEA salt], in the data set with eyes of rabbit (61 wt % a.e., pH 8.5), the “time after treatment at which all eyes were free of positive scores” value is given as 7 days and the “time by which all eyes were free of all irritation” value is on record as not above 10 days. The “eye irritation rating in words” value in the data set with eyes of rabbit (Example 16: 61 wt % a.e. aqueous MEA dicamba, pH 8.5, 3 rabbits, b51: concentrate formulations at pH about 8) is given as “moderately irritating”. Besides, the “ocular findings in all treated eyes” value in the data set with eyes of rabbit (within 24 hours after treatment, 61 wt % a.e., pH 8.5) was “corneal opacity, iritis and conjunctivitis”. Further, the “aqueous solubility wt % a.e. @20° C.” value in data set [1] (Table 10b, second experiment, dicamba acid and salts, 20° C.) is 66.1 wt % a.e. The “aqueous solubility wt % a.i. @20° C.” value in data set [1] (Table 10b, second experiment, 20° C.) is 84.4 wt % a.i. The “crystal formation from concentrated salt solution” value in data set [1] (solubility experiment, Example 10) is on record as “did not form crystals”. In data set [2], the “dicamba concentration in the gas phase above the solution, comparison” value was “lower than the acid or the sodium, potassium and DMA salts”; the “gas concentration, times less than the commercial product BANVEL” value is given as approximately 20 times.
Take `CNC.COc1c(Cl)ccc(Cl)c1C(=O)O` [Dicamba DMA salt]: in data set [3], the “solubility g a.e./L” value is reported as approximately 600 g a.e./L and the “solubility wt % a.e.” value is listed as “about 45 wt % a.e”. Also, in data set [4] (starting solution pH 3.60), the “pH Solution After Distillation” value amounted to 3.58 and the “ppm DMA in Distillate” value was “Undetectable”. In data set [4] (starting solution pH 8.20), the “pH Solution After Distillation” value was 7.04 and the “ppm DMA in Distillate” value was 400 ppm. In addition, in data set [4] (starting solution pH 10.10), the “pH Solution After Distillation” value is given as 6.4 and the “ppm DMA in Distillate” value was determined as 5000 ppm. In addition, the “amine in the distillate by HPLC analysis” value in data set [4] (acidic pH (3.6)) is recorded as “no detectable amine”.
Regarding `COc1c(Cl)ccc(Cl)c1C(=O)O` [Dicamba sodium salt, reference compound], in data set [5] (35.8% a.e. dicamba salt solution added to […] Roundup POWERMAX solution), the “crystallization in the presence of potassium glyphosate” value is recorded as “induced crystallization”. Besides, in data set [5], the g to crystals worked out at 13.6 g. The “Mean Dicamba in Distillate” value in data set [6] (1% a.e. dicamba, solution pH 3.31) is listed as 3.42 ppm; in data set [6] (1% a.e. dicamba, solution pH 4.25), 0.70 ppm; in data set [6] (1% a.e. dicamba, solution pH 6.19), 0.13 ppm; in data set [6] (1% a.e. dicamba, solution pH 9.82), 0.09 ppm; in data set [6] (1% a.e. dicamba, solution pH 11.15), 0.06 ppm; in data set [6] (2% a.e. dicamba, solution pH 3.33) it was 5.74 ppm. In addition, the “Mean Dicamba in Distillate” value in data set [6] (2% a.e. dicamba, solution pH 4.29) is 1.39 ppm; in data set [6] (2% a.e. dicamba, solution pH 6.28), 0.32 ppm; in data set [6] (2% a.e. dicamba, solution pH 9.93), 0.16 ppm; in data set [6] (2% a.e. dicamba, solution pH 11.50) it was 0.15 ppm; in data set [6] (5% a.e. dicamba, solution pH 3.36), 11.57 ppm; in data set [6] (5% a.e. dicamba, solution pH 4.34), 2.36 ppm. For the same compound, the “Mean Dicamba in Distillate” value is 0.77 ppm in data set [6] (5% a.e. dicamba, solution pH 6.32); 0.45 ppm in data set [6] (5% a.e. dicamba, solution pH 10.36); 0.22 ppm in data set [6] (5% a.e. dicamba, solution pH 12.15). The “ppm Dicamba in distillate” value in data set [6] (pH 6.32) amounted to 0.8 ppm. Besides, in data set [1] (20° C., listed as sodium salt), the “aqueous solubility Approximate g a.e./L @20° C.” value was 364 g a.e./L. Moreover, the “aqueous solubility wt % a.e. @20° C.” value came to 36.3 wt % a.e in data set [1] (20° C., listed as sodium salt); 36.3 wt % a.e in data set [1] (Table 10b, second experiment, dicamba acid and salts, 20° C., listed as sodium salt). In addition, in data set [1] (Example 10), the “crystal formation on drying on a glass surface” value was “formed crystals very readily”. In addition, in data set [1] (Table 10a, listed as Na), the “Comments (crystal formation)” value was “Crystals form easily”. For the same compound, the “solubility 0° C. a.e.” value in data set [1] (Table 10a, dicamba salt, equilibrated 5 to 7 days at 0° C., acid equivalent, listed as Na) is 33 wt %. Also, the “solubility 0° C. a.i.” value in data set [1] (Table 10a, dicamba salt, equilibrated 5 to 7 days at 0° C., active ingredient, listed as Na) is given as 36.3 wt %. In data set [1] (Table 10a, dicamba salt, acid equivalent, listed as Na), the “solubility 20° C. a.e.” value came out at 36.3 wt %. For the same compound, in data set [1] (Table 10a, dicamba salt, active ingredient, listed as Na), the “solubility 20° C. a.i.” value is 40.3 wt %. The “aqueous solubility wt % a.i. @20° C.” value in data set [1] (Table 10b, second experiment, 20° C., listed as sodium salt) stood at 40.3 wt % a.i.
Take `NCCOCCO` [DGA]: in data set [5], the Comment entry is “CLARITY-clear solution with no”. For the same compound, the g to crystals in data set [5] is recorded as more than 17 g. The “Mean Dicamba in Distillate” value amounted to 0.46 ppm in data set [6] (1% a.e. dicamba, solution pH 4.23); 0.18 ppm in data set [6] (1% a.e. dicamba, solution pH 6.48); 0.13 ppm in data set [6] (1% a.e. dicamba, solution pH 8.24); 0.12 ppm in data set [6] (1% a.e. dicamba, solution pH 8.88); 1.10 ppm in data set [6] (2% a.e. dicamba, solution pH 4.17); 0.31 ppm in data set [6] (2% a.e. dicamba, solution pH 6.44). The “Mean Dicamba in Distillate” value in data set [6] (2% a.e. dicamba, solution pH 8.22) is listed as 0.28 ppm; in data set [6] (2% a.e. dicamba, solution pH 8.92), 0.19 ppm; in data set [6] (5% a.e. dicamba, solution pH 4.57), 2.11 ppm; in data set [6] (5% a.e. dicamba, solution pH 6.35) it was 0.75 ppm; in data set [6] (5% a.e. dicamba, solution pH 8.26) it was 0.58 ppm; in data set [6] (5% a.e. dicamba, solution pH 9.03), 0.32 ppm. The figures for the “ppm Dicamba in distillate” value in data set [6] (pH 6.35) and in data set [6] (pH 8.26) were 0.8 ppm and 0.6 ppm, respectively. Besides, the “Comments (crystal formation)” value in data set [1] (Table 10a) was “Crystals formed slowly”. The “solubility 20° C. a.e.” value in data set [1] (setting [7]) is recorded as less than 50 wt %.
On to `NCCO` [MEA], for which, in data set [5], the Comment result is recorded as “Clear solution, no precipitate” and the g to crystals is more than 34.2 g. In data set [6] (pH 6.87), the “ppm Dicamba in distillate” value worked out at 0.5 ppm. Moreover, the “ppm Dicamba in distillate” value in data set [6] (pH 8.03) stood at 0.3 ppm. In data set [1] (setting [7]), the “solubility 20° C. a.e.” value is given as more than 71.9 wt %. Moreover, the “solubility 20° C. a.i.” value in data set [1] (Table 10a, dicamba salt, active ingredient) is reported as more than 91.8 wt %.
